≈ marks a conversion by molar mass, not a printed value.
Experiments:
[1] = biological target: T1, glucocerebrosidase (Gcase) (Homo sapiens, UniProt P04062); assay: Glucocerebrosidase (Gcase) activation assay, 4-methylumbelliferyl-beta-D-glucopyranoside substrate, with saposin C; format: biochemical; details: for activation at 0.1 µM: read-out: Percent Gcase Activation 0.1 μM Test Compound; for activation at 1 µM: read-out: Percent Gcase Activation 1 μM Test Compound
T1 construct: micellar solution containing 10 nM GCase and 100 nM saposin C (Enzo ALX-201-262-C050)
T1 sequence (P04062 40-536): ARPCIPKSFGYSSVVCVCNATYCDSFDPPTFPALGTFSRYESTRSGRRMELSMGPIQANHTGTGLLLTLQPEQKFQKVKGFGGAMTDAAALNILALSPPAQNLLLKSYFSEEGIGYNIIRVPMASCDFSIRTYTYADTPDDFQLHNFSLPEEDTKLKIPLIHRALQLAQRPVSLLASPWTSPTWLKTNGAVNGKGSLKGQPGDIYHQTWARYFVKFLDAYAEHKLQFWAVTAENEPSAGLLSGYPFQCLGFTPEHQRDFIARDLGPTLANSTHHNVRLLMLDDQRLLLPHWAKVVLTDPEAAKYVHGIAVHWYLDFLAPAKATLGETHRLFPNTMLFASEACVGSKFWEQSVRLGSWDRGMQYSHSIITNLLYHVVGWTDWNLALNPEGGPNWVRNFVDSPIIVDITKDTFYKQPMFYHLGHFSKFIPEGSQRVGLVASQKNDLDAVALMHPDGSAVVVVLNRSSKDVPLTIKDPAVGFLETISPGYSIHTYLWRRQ
Protocol: A 484 μL aliquot of a 1.0 mg/mL solution of phosphatidylserine (PS) (Sigma P7769) in chloroform was evaporated under a stream of nitrogen for 1 hour. The lipid film was dissolved over 4 minutes of vigorous vortexing in 40 mL of 176 mM K2HPO4/50 mM citric acid (pH 4.7) containing 7.5 μL of triton X-100, resulting in a mixed micellar preparation with a composition of 0.32 mM triton and 0.37 mol % PS. 4-Methylumbelliferyl-beta-D-glucopyranoside (ACROS-337025000) was dissolved in the micellar solution to a final concentration of 2 mM for use as the reaction substrate.
Test compounds were diluted to the desired concentrations with dimethylsulfoxide (DMSO) from 10 mM stocks, and 0.41 μL of the DMSO compound mixture was added to 100 μL of micellar solution containing 10 nM GCase and 100 nM saposin C (Enzo ALX-201-262-C050). Pre-incubation was allowed to occur for 30 minutes at room temperature, after which the reaction was initiated by combining 25 μL of substrate solution with 25 μL of compound/GCase/saposin mixture. The reaction proceeded for 15 minutes at room temperature and was stopped by adding 150 μL of 1M glycine, pH 12.5. The endpoint of the reaction was monitored by measuring fluorescence intensity (excitation: 365 nm; emission: 440 nm) on a SpectraMax i3 instrument (Molecular Devices). Test compounds were screened at 1.0 and 0.1 μM final concentration, and subsequent 8-point dose response curves were obtained using 3-fold dilutions from a maximum final concentration of 5 μM.

[2] = Compound solubility in water; format: physicochemical

Row | SMILES | activation at 0.1 µM [1] [%] | activation at 1 µM [1] [%] | solubility [2] [µg/mL]
1 | CCCCC1CCC(NC(=O)c2cnc3n(c2=O)C(C)CS3)CC1 (stereo not shown) | 5 to 20 | > 20 | 1.3 (≈ 3.72 µM)
2 | CCCCC1CCC(NC(=O)c2cnc3n(c2=O)CC(C)S3)CC1 (stereo not shown) | < 5 | > 20 | 1.2 (≈ 3.43 µM)
3 | CC1CCC(NC(=O)c2cnc3n(c2=O)CCS3)CC1 (stereo not shown) | < 5 | 5 to 20 | 21.4 (≈ 72.9 µM)
4 | O=C(NC1CCCCCC1)c1cnc2n(c1=O)CCS2 | < 5 | 5 to 20 | 20.8 (≈ 70.9 µM)
5 | O=C(NC1CC2CCC1C2)c1cnc2n(c1=O)CCS2 (stereo not shown) | < 5 | < 5 | 
6 | O=C(NC1CCOCC1)c1cnc2n(c1=O)CCS2 | < 5 | 5 to 20 | 26.3 (≈ 93.5 µM)
7 | CCCCC1CCC(NC(=O)c2cnc3n(c2=O)CCS3)CC1 (stereo not shown) | 5 to 20 | > 20 | 
8 | O=C(NC1CCC2(CCCCO2)CC1)c1cnc2n(c1=O)CCS2 (stereo not shown) | < 5 | < 5 | 29.5 (≈ 84.4 µM)
9 | O=C(NC1CCCC2(CCCCO2)C1)c1cnc2n(c1=O)CCS2 (stereo not shown) | < 5 | < 5 | 36 (≈ 103 µM)
10 | O=C(NC1CCCCC12CCCCO2)c1cnc2n(c1=O)CCS2 (stereo not shown) | < 5 | < 5 | 37.2 (≈ 106 µM)
11 | Cc1ccc(NC(=O)c2cnc3scc(C)n3c2=O)cc1C |  | 5 to 20 | 
12 | Cc1sc2ncc(C(=O)Nc3ccc(C(C)C)cc3)c(=O)n2c1C |  | < 5 | 
13 | Cc1ccc(NC(=O)c2cnc3scc(C)n3c2=O)cc1F |  | 5 to 20 | 
14 | Cc1ccc(CNC(=O)c2cnc3scc(C)n3c2=O)cc1 |  | 5 to 20 | 
15 | COc1cccc(NC(=O)c2cnc3scc(C)n3c2=O)c1 |  | 5 to 20 | 
16 | CCOc1ccccc1NC(=O)c1cnc2scc(C)n2c1=O |  | 5 to 20 | 
17 | CCOc1ccc(NC(=O)c2cnc3scc(C)n3c2=O)cc1 |  | 5 to 20 | 
18 | COc1ccc(NC(=O)c2cnc3scc(C)n3c2=O)c(OC)c1 |  | 5 to 20 | 

Row | SMILES | activation at 0.1 µM [1] [%] | activation at 1 µM [1] [%] | solubility [2] [µg/mL]
19 | CCCCc1ccc(NC(=O)c2cnc3scc(C)n3c2=O)cc1 | 5 to 20 | > 20 | 
20 | CCc1cccc(NC(=O)c2cnc3scc(C)n3c2=O)c1 |  | > 20 | 
21 | Cc1csc2ncc(C(=O)Nc3ccc(N(C)C)cc3)c(=O)n12 |  | 5 to 20 | 
22 | CCC(C)c1ccc(NC(=O)c2cnc3sccn3c2=O)cc1 (stereo not shown) | < 5 | > 20 | 
23 | Cc1ccc(NC(=O)c2cnc3sccn3c2=O)cc1C |  | 5 to 20 | 
24 | COC(=O)c1ccc(NC(=O)c2cnc3scc(C)n3c2=O)cc1 |  | 5 to 20 | 
25 | Cc1cc(C)cc(NC(=O)c2cnc3sccn3c2=O)c1 |  | 5 to 20 | 
26 | Cc1ccccc1NC(=O)c1cnc2scc(C)n2c1=O |  | 5 to 20 | 
27 | Cc1ccc(NC(=O)c2cnc3scc(C)n3c2=O)c(C)c1 |  | > 20 | 
28 | Cc1ccc(NC(=O)c2cnc3scc(C)n3c2=O)cc1Cl |  | 5 to 20 | 
29 | CCCCOC(=O)c1ccc(NC(=O)c2cnc3scc(C)n3c2=O)cc1 |  | > 20 | 
30 | CCCCc1ccc(NC(=O)c2cnc3sc4c(n3c2=O)CCCC4)cc1 |  | 5 to 20 | 
31 | Cc1csc2ncc(C(=O)Nc3ccc4c(c3)OCO4)c(=O)n12 | < 5 | 5 to 20 | 
32 | Cc1cccc2ncc(C(=O)NC3CC4CCC3C4)c(=O)n12 (stereo not shown) | < 5 | 5 to 20 | 
33 | Cc1ccn2c(=O)c(C(=O)NC3CCc4ccccc4C3)cnc2c1 (stereo not shown) | < 5 | 5 to 20 | 
34 | Cc1cccc2ncc(C(=O)NC3CCOc4ccccc43)c(=O)n12 (stereo not shown) | < 5 | 5 to 20 | 
35 | Cc1cccc2ncc(C(=O)NCCOc3ccccc3)c(=O)n12 | < 5 | 5 to 20 | 

Further lines, results first:

Row | activation at 0.1 µM [1] [%] | activation at 1 µM [1] [%] | solubility [2] [µg/mL] | SMILES
36 | < 5 | > 20 | 5.1 (≈ 16.9 µM) | CCc1ccc(NC(=O)c2cnc3n(c2=O)CCS3)cc1
37 | 5 to 20 | > 20 | 0.3 (≈ 0.911 µM) | CCC(C)c1ccc(NC(=O)c2cnc3n(c2=O)CCS3)cc1 (stereo not shown)
38 | < 5 | 5 to 20 | 0.3 (≈ 0.957 µM) | O=C(Nc1ccc2c(c1)CCC2)c1cnc2n(c1=O)CCS2
39 | < 5 | < 5 |  | O=C(Nc1ccc(-c2cocn2)cc1)c1cnc2n(c1=O)CCS2
40 | 5 to 20 | 5 to 20 |  | O=C(Nc1ccc(-c2ccco2)cc1)c1cnc2n(c1=O)CCS2
41 | 5 to 20 | 5 to 20 |  | O=C(Nc1ccc(-c2cccs2)cc1)c1cnc2n(c1=O)CCS2
42 | 5 to 20 | 5 to 20 |  | COCC#Cc1ccc(NC(=O)c2cnc3n(c2=O)CCS3)cc1
43 | < 5 | 5 to 20 |  | Cc1ccc(NC(=O)c2cnc3n(c2=O)CCS3)cc1-c1ncco1
44 | < 5 | < 5 | 0.8 (≈ 2.36 µM) | O=C(Nc1ccc(-n2ccnc2)cc1)c1cnc2n(c1=O)CCS2
45 | < 5 | > 20 | 7.1 (≈ 21.7 µM) | O=C(NC1CCCc2ccccc21)c1cnc2n(c1=O)CCS2 (stereo not shown)
46 | < 5 | 5 to 20 | 17.6 (≈ 56.2 µM) | O=C(NC1CCc2ccccc21)c1cnc2n(c1=O)CCS2 (stereo not shown)
47 | < 5 | < 5 | 9.5 (≈ 28.7 µM) | O=C(Nc1ccc2c(c1)OCCO2)c1cnc2n(c1=O)CCS2
48 | < 5 | 5 to 20 | 34.8 (≈ 90.3 µM) | CCN1CCN(c2ccc(NC(=O)c3cnc4n(c3=O)CCS4)cc2)CC1
49 | < 5 | < 5 | 4 (≈ 11.2 µM) | O=C(Nc1ccc(N2CCCCC2)cc1)c1cnc2n(c1=O)CCS2
50 | < 5 | < 5 | 36.8 (≈ 122 µM) | C[C@@H](NC(=O)c1cnc2n(c1=O)CCS2)c1ccccc1
51 | 5 to 20 | 5 to 20 | 37.2 (≈ 123 µM) | C[C@H](NC(=O)c1cnc2n(c1=O)CCS2)c1ccccc1
52 | < 5 | 5 to 20 | 16.7 (≈ 47.7 µM) | CC(Cc1ccc(Cl)cc1)NC(=O)c1cnc2n(c1=O)CCS2 (stereo not shown)

Row | activation at 0.1 µM [1] [%] | activation at 1 µM [1] [%] | solubility [2] [µg/mL] | SMILES
53 | 5 to 20 | > 20 | 10.6 (≈ 29.8 µM) | O=C(NC1CCC(c2ccccc2)CC1)c1cnc2n(c1=O)CCS2 (stereo not shown)
54 | < 5 | 5 to 20 | 32.4 (≈ 98.7 µM) | CN1Cc2ccc(NC(=O)c3cnc4n(c3=O)CCS4)cc2C1
55 | < 5 | 5 to 20 | 30.7 (≈ 93.8 µM) | O=C(NC1CCc2ccccc2C1)c1cnc2n(c1=O)CCS2 (stereo not shown)
56 | < 5 | 5 to 20 | 1.5 (≈ 5.04 µM) | C#Cc1ccc(NC(=O)c2cnc3n(c2=O)CCS3)cc1
57 | 5 to 20 | > 20 | 0.2 (≈ 0.607 µM) | CCCCc1ccc(NC(=O)c2cnc3n(c2=O)CCS3)cc1
58 | 5 to 20 | > 20 |  | O=C(Nc1ccc(C2CCCCC2)cc1)c1cnc2n(c1=O)CCS2
59 | < 5 | 5 to 20 |  | O=C(NC1CCOc2ccccc21)c1cnc2n(c1=O)CCS2 (stereo not shown)
60 | < 5 | 5 to 20 |  | O=C(NCCOc1ccccc1)c1cnc2n(c1=O)CCS2
61 |  | < 5 |  | Cc1csc2ncc(C(=O)Nc3ccc(F)cc3)c(=O)n12
62 |  | > 20 |  | Cc1csc2ncc(C(=O)Nc3ccc(Cl)cc3)c(=O)n12
63 |  | > 20 |  | CCc1ccc(NC(=O)c2cnc3scc(-c4ccccc4)n3c2=O)cc1
64 |  | > 20 |  | CCCCc1ccc(NC(=O)c2cnc3scc(-c4ccccc4)n3c2=O)cc1
65 | 5 to 20 | > 20 |  | CCc1ccc(NC(=O)c2cnc3sccn3c2=O)cc1
66 |  | > 20 |  | COc1ccc(NC(=O)c2cnc3scc(C)n3c2=O)cc1
67 | 5 to 20 | > 20 |  | Cc1csc2ncc(C(=O)Nc3ccc(Oc4ccccc4)cc3)c(=O)n12
68 |  | 5 to 20 |  | Cc1ccc(NC(=O)c2cnc3sc(C)cn3c2=O)cc1
69 | < 5 | 5 to 20 |  | Cc1csc2ncc(C(=O)Nc3ccc(-c4cocn4)cc3)c(=O)n12
